In data set [1] the target is SP1 (Homo sapiens, UniProt P08047). Conditions: background statement; cited from earlier work.
For data set [2] the following is noted: background statement; cited from earlier work.
The subject of data set [3] is AD patient. Briefly: Treatment of an AD patient. In kind it is in vivo. Conditions: compared to a non-treated patient. On the procedure: A therapeutically effective amount of the TA analog 2-(2-cyanophenylthio) benzoic acid is administered to an AD patient.
Data set [4] concerns CTE patient. Nature of the data set: Treatment of a Chronic Traumatic Encephalopathy (CTE) patient. Conditions: compared to a non-treated patient. It counts as in vivo. As for the experimental part: A therapeutically effective amount of the TA analog 2-(2-cyanophenylthio) benzoic acid is administered to a CTE patient.
In data set [5] the test system is bvFTLD patient. Briefly: Treatment of a Behavioral Variant Frontotemporal Dementia (bvFTLD) patient. It counts as in vivo. Conditions: compared to a non-treated patient. As for the experimental part: A therapeutically effective amount of the TA analog 2-(2-cyanophenylthio) benzoic acid is administered to a bvFTLD patient.
Data set [6] concerns Pick disease patient. Briefly: Treatment of a Pick disease patient. It counts as in vivo. Conditions: compared to a non-treated patient. On the procedure: A therapeutically effective amount of the TA analog 2-(2-cyanophenylthio) benzoic acid is administered to a Pick disease patient.
Data set [7] deals with Down's Syndrome patient. Briefly: Treatment of a Down's Syndrome patient. In kind it is in vivo. Conditions: compared to a non-treated patient. On the procedure:
A therapeutically effective amount of the TA analog 2-(2-cyanophenylthio) benzoic acid is administered to a Down's Syndrome patient.

For data set [8], the system named is TBI patient. Nature of the data set: Treatment of a Traumatic Brain Injury (TBI) patient. It counts as in vivo. Conditions: compared to a non-treated patient. As for the experimental part:
A therapeutically effective amount of the TA analog 2-(2-cyanophenylthio) benzoic acid is administered to a TBI patient.

In data set [9] the test system is PSP patient. Nature of the data set: Treatment of a Progressive Supranuclear Palsy (PSP) patient. In kind it is in vivo. Conditions: compared to a non-treated patient. As for the experimental part: A therapeutically effective amount of the TA analog 2-(2-cyanophenylthio) benzoic acid is administered to a PSP patient.
In data set [10] the test system is FTLD patient. Nature of the data set: Treatment of a Frontotemporal Lobar Degeneration (FTLD) patient. Conditions: compared to a non-treated patient. It counts as in vivo. On the procedure: A therapeutically effective amount of the TA analog 2-(2-cyanophenylthio) benzoic acid is administered to an FTLD patient.
The subject of data set [11] is corticobasal degeneration patient. Nature of the data set: Treatment of a corticobasal degeneration patient. In kind it is in vivo. Conditions: compared to a non-treated patient. On the procedure:
A therapeutically effective amount of the TA analog 2-(2-cyanophenylthio) benzoic acid is administered to a corticobasal degeneration patient.

Sequence of SP1 (P08047 whole entry): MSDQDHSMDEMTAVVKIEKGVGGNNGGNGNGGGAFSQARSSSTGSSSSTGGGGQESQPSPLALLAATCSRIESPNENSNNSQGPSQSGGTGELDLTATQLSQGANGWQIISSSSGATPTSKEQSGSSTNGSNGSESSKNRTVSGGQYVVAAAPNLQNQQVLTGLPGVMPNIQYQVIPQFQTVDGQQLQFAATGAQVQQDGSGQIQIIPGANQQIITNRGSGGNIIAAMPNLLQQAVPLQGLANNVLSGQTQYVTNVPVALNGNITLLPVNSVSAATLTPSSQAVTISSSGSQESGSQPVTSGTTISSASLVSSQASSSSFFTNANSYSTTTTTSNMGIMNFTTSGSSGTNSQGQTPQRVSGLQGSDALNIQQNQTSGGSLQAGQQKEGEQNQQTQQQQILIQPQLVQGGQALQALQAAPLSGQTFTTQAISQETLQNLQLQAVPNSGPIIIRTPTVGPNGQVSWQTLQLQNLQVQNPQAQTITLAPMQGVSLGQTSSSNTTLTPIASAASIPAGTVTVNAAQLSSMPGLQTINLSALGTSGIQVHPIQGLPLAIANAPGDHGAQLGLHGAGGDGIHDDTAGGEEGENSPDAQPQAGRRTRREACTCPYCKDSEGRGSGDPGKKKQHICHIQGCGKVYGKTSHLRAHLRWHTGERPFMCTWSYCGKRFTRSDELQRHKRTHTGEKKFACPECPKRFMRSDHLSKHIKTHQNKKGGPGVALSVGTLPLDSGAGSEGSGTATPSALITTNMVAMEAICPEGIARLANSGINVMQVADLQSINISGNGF

Consider `Cc1c(Cl)cccc1Nc1ccccc1C(=O)O` [TA, Tolfenamic Acid], for which, in data set [1], the “interaction with SP1” value is recorded as “interact directly with SP1”. In data set [2], the “ability to cross the blood brain barrier (BBB)” value was “cross the blood brain barrier”.

In the case of `N#Cc1ccccc1Sc1ccccc1C(=O)O` [2-(2-cyanophenylthio) benzoic acid, 2-(2-cyanophenylthio)benzoic acid], the “patient's symptoms” value in [3], in [4], in data set [5], in [6], in [7] and in data set [8] was “symptoms are reduced” each time. Moreover, the “patient's symptoms” value in data set [9], in data set [10] and in data set [11] was “symptoms are reduced” each time.

The values above are taken from US20230381133A1, “TAU AND AMYLOID PROTEIN LOWERING COMPOUNDS AND METHODS OF USE” (Qatar Foundation for Education, Science and Community …, priority 2022, published 2023).
